Test results: patent US3961041A, “Effervescent enteric coated L-dopa formulation and method of using the same” (priority 1974, dated 1976)

Columns and labels:
[1] = Absorption of L-DOPA from the gastrointestinal tract (inventors' experimentation); format: in vivo
Excerpt: As for (1), it has been confirmed that the decomposition of L-DOPA in the stomach is remarkable as shown in numerous reports in the past.
As a result, optimum absorption of the drug is totally incomplete.

[2] = cited from earlier work
decarboxylase enzymes = settings: cited from earlier work
Parkinson's Disease = settings: in vivo, po; cited from earlier work
[3] = dopamine as metabolite; cited from earlier work

absorption from the gastrointestinal tract ([1]; in vivo)	absorption, oral as compared to intravenous ([1]; oral vs intravenous)	SMILES	optimum absorption site ([1]; in vivo)	decomposition in the stomach ([2]; in vivo)	stability in the gastrointestinal tract, especially in the stomach ([2]; in vivo)	absorption from the gastrointestinal tract (prior art reason) ([2]; oral)	decarboxylation via decarboxylase enzymes in the intestine (decarboxylase enzymes)	side effects when massive dosing is administered (Parkinson's Disease)	therapeutic effect in the treatment of Parkinson's Disease [3]
almost completely absorbed	not appreciably different	N[C@@H](Cc1ccc(O)c(O)c1)C(=O)O [L-DOPA, 3,4-dihydroxy-L-phenylalanine]	small intestine, especially in the upper part thereof	remarkable	unstable	poorly absorbed	apt to undergo decarboxylation	marked side effects	–
–	–	NCCc1ccc(O)c(O)c1 [dopamine]	–	–	–	–	–	–	does not have any therapeutic effect
